The source of these data is ChEMBL document CHEMBL1201862, “PubChem BioAssay data set” (2004).

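Exposure lasted 48 hours, with cells grown in 96-well plates and compounds tested at five concentrations. GI50 = concentration required for 50% inhibition of growth.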 Activity calls are given as the source filed them. Rule as the data show it: active = GI50 up to about 1.1 µM and inactive = higher. Where only a bound is given, the exact number is not on record here.

Among the test systems are NCI-H522; SW-620; MCF7; MDA-MB-231; SF-268; HL-60; A549; IGROV-1; ACHN; SN12C; HT-29; UO-31; MOLT-4; COLO 205; NCI/ADR-RES; 786-0; LOX IMVI; EKVX; HCT-116; CCRF-CEM.
What all share (assay): inhibition of tumour cell growth, NCI panel, 48 h

For `CC[C@]12C=CCN3CCC4(c5cc(/N=N/c6ccccc6)c(OC)cc5N(C)[C@H]4[C@@](O)(C(=O)OC)[C@@H]1OC(C)=O)[C@@H]32` (some centres not stated), the GI50 in the assay on NCI-H522 is 16.1 µM (inactive); in the assay with SW-620, 23.1 µM (inactive); in the assay on MCF7 it was 16.3 µM (inactive); in the assay with MDA-MB-231, 16.2 µM (inactive); in the assay with SF-268, 18.2 µM (inactive); with HL-60 it was 17.3 µM (inactive). Besides, the GI50 in the assay with A549 is 17.5 µM (inactive); with IGROV-1, 17.3 µM (inactive); with ACHN, 16.1 µM (inactive); with SN12C, 18.6 µM (inactive); in the assay on HT-29, 16.3 µM (inactive); in the assay on UO-31 it was 14.6 µM (inactive). Also, the GI50 with MOLT-4 was 13.6 µM (inactive); with COLO 205 it was 25.2 µM (inactive); in the assay on NCI/ADR-RES it was 20.4 µM (inactive); with 786-0, 16.9 µM (inactive); in the assay on LOX IMVI, 17.3 µM (inactive); in the assay with EKVX it was 16.5 µM (inactive). Further, the GI50 with HCT-116 is 16.4 µM (inactive).

With `O=C(O)C1C2CCC(O2)C1C(=O)Nc1cccc2cccnc12` (configuration not stated), the GI50 was 88.5 µM (inactive) in the assay on NCI-H522; > 100 µM (inactive) with SW-620; > 100 µM (inactive) with MCF7; > 100 µM (inactive) in the assay on MDA-MB-231; > 100 µM (inactive) in the assay on A549; > 100 µM (inactive) with IGROV-1. Further, the GI50 in the assay on ACHN, with SN12C, with HT-29, in the assay with UO-31, with NCI/ADR-RES and with 786-0 was > 100 µM (inactive) each time. Besides, the GI50 in the assay on LOX IMVI, in the assay with EKVX and in the assay on HCT-116 was > 100 µM (inactive) each time.

In the case of `COc1ccccc1OC(=O)/C=C/c1ccccc1`, the GI50 in the assay with NCI-H522 was > 100 µM (inactive); in the assay with SW-620 it was > 100 µM (inactive); in the assay with MCF7, > 100 µM (inactive); in the assay on MDA-MB-231, > 100 µM (inactive); in the assay on SF-268 it was 52.1 µM (inactive); in the assay on HL-60 it was 64.1 µM (inactive). Besides, the GI50 with A549, in the assay on IGROV-1, in the assay with ACHN, with SN12C, in the assay on HT-29 and in the assay with UO-31 was > 100 µM (inactive) in each case. For the same compound, the GI50 with MOLT-4 was 17.4 µM (inactive); with COLO 205 it was > 100 µM (inactive); with NCI/ADR-RES, > 100 µM (inactive); in the assay on 786-0 it was > 100 µM (inactive); in the assay with LOX IMVI it was > 100 µM (inactive); in the assay on EKVX it was > 100 µM (inactive). The GI50 in the assay on HCT-116 was > 100 µM (inactive).

Consider `CC(C)(C)OC(=O)NCCNCCNc1ccccc1`, for which the GI50 with NCI-H522, with SW-620, with MCF7, with CCRF-CEM, in the assay with MDA-MB-231 and in the assay on A549 was > 100 µM (inactive) throughout. The GI50 in the assay with IGROV-1, with ACHN, in the assay with SN12C, in the assay on HT-29, in the assay on UO-31 and with MOLT-4 was > 100 µM (inactive) in each case. Moreover, the GI50 in the assay with COLO 205, in the assay on NCI/ADR-RES, with 786-0, in the assay with LOX IMVI, in the assay on EKVX and with HCT-116 was > 100 µM (inactive) each time.

In the case of `CCCCCCCCCCCCCCCCCCNc1ccn(C2OC(CO)C(OP(=O)(O)OCC(O)COP(=O)(O)OCC3OC(n4cc(F)c(NCCCCCCCCCCCCCCCCCC)nc4=O)CC3O)C2O)c(=O)n1` (configuration not stated), the GI50 in the assay with NCI-H522, in the assay on SW-620, in the assay with MCF7, in the assay with MDA-MB-231, in the assay with SF-268 and in the assay on HL-60 was > 50 µM (inactive) each time. In addition, the GI50 with A549, with IGROV-1, in the assay with ACHN, in the assay on SN12C, in the assay with HT-29 and in the assay on UO-31 was > 50 µM (inactive) throughout. The GI50 with COLO 205, in the assay on NCI/ADR-RES, with 786-0, with LOX IMVI, in the assay with EKVX and in the assay on HCT-116 was > 50 µM (inactive) in each case.

`COc1ccc(/N=N/C(=N/NC(=O)c2ccccc2)c2ccc(N(CCC#N)CCC#N)cc2C)cc1`: the GI50 in the assay with NCI-H522 is 10.7 µM (inactive); in the assay with MCF7, 18.5 µM (inactive); in the assay on CCRF-CEM it was 36.7 µM (inactive); with MDA-MB-231, 50.9 µM (inactive); in the assay with SF-268 it was 58.2 µM (inactive); in the assay on HL-60, 32.6 µM (inactive). Besides, the GI50 with A549 is 38.2 µM (inactive); with IGROV-1, 42.8 µM (inactive); in the assay with ACHN, 54.3 µM (inactive); with SN12C it was 56.1 µM (inactive); with HT-29 it was 17.9 µM (inactive); in the assay on UO-31, 52 µM (inactive). In addition, the GI50 in the assay with MOLT-4 was 49.5 µM (inactive); in the assay on COLO 205, 32.8 µM (inactive); with NCI/ADR-RES it was > 100 µM (inactive); with 786-0, 47.5 µM (inactive); with EKVX, 97.9 µM (inactive); in the assay with HCT-116 it was 29.9 µM (inactive).

Consider `NNc1ncnc2cccc(Cl)c12`, for which the GI50 in the assay on NCI-H522, with SW-620, in the assay with MCF7, in the assay with CCRF-CEM, in the assay with MDA-MB-231 and with SF-268 was > 100 µM (inactive) each time. The GI50 with HL-60, with A549, in the assay on IGROV-1, with ACHN, in the assay with SN12C and in the assay on HT-29 was > 100 µM (inactive) each time. For the same compound, the GI50 in the assay on UO-31 was > 100 µM (inactive); in the assay with MOLT-4, > 100 µM (inactive); in the assay on COLO 205, > 100 µM (inactive); in the assay on NCI/ADR-RES, > 100 µM (inactive); in the assay with 786-0, > 100 µM (inactive); with EKVX, 17.8 µM (inactive). Besides, the GI50 with HCT-116 is > 100 µM (inactive).

On to `O=C(Oc1cncc(Cl)c1)c1cc2ccccc2sc1=O`, for which the GI50 with NCI-H522 was 19.5 µM (inactive); in the assay on SW-620, 35.2 µM (inactive); in the assay on MCF7, 39.4 µM (inactive); in the assay on MDA-MB-231 it was 61.5 µM (inactive); in the assay with SF-268, 49.5 µM (inactive); with HL-60 it was 47.6 µM (inactive). Besides, the GI50 was > 100 µM (inactive) in the assay with A549; 49.5 µM (inactive) in the assay on IGROV-1; 86.1 µM (inactive) in the assay with ACHN; 60.3 µM (inactive) in the assay on SN12C; 86.1 µM (inactive) with HT-29; > 100 µM (inactive) in the assay on UO-31. Further, the GI50 in the assay with MOLT-4 is 23.7 µM (inactive); with COLO 205, 49.9 µM (inactive); in the assay with NCI/ADR-RES, 78.3 µM (inactive); with 786-0 it was 63.5 µM (inactive); in the assay with LOX IMVI it was 37.3 µM (inactive); in the assay with EKVX it was > 100 µM (inactive). The GI50 in the assay with HCT-116 was 78.3 µM (inactive).

`NS(=O)(=O)c1nnc(NSc2ccc([N+](=O)[O-])cc2)s1`: the GI50 in the assay on NCI-H522 was 23.7 µM (inactive); in the assay with SW-620, > 100 µM (inactive); with MCF7 it was > 100 µM (inactive); in the assay with MDA-MB-231 it was > 100 µM (inactive); with SF-268, > 100 µM (inactive); in the assay on A549, > 100 µM (inactive). Also, the GI50 with ACHN is > 100 µM (inactive); with SN12C, > 100 µM (inactive); in the assay on UO-31 it was > 100 µM (inactive); with MOLT-4, 40.8 µM (inactive); in the assay on COLO 205, > 100 µM (inactive); with NCI/ADR-RES it was > 100 µM (inactive). For the same compound, the GI50 in the assay with 786-0, in the assay with LOX IMVI, in the assay with EKVX and in the assay on HCT-116 was > 100 µM (inactive) throughout.

On to `C=C1C2C[C@@H]3O[C@H]4C[C@H]5O[C@@]6(C[C@@H]7O[C@]8(C[C@H](C)[C@@H]9O[C@@H]%10CC(CO)O[C@@H]%10C[C@@H]9O8)C[C@H](C)[C@@H]7O6)C[C@H]5O[C@H]4[C@H](C)[C@H]3OC(=O)C[C@H]3CC[C@@H]4OC5[C@H]6O[C@]7(CC[C@H]8CC(=C)[C@H](CC[C@@H](C[C@H]1C)O2)O8)CC6O[C@@H]5[C@@H](O7)[C@H]4O3` (some centres not stated), for which the GI50 with NCI-H522, in the assay on SW-620, with MCF7, with CCRF-CEM, in the assay on MDA-MB-231 and in the assay with SF-268 was < 0.0001 µM (active) throughout. Besides, the GI50 with A549, in the assay on IGROV-1, in the assay on ACHN, in the assay with SN12C, in the assay on UO-31 and in the assay on MOLT-4 was < 0.0001 µM (active) in each case. In addition, the GI50 in the assay on COLO 205, with NCI/ADR-RES, in the assay on 786-0, in the assay on LOX IMVI, in the assay with EKVX and in the assay with HCT-116 was < 0.0001 µM (active) throughout.

`Nc1nc(N)c2cc(Sc3cccc(C(F)(F)F)c3)ccc2n1` [WR-159412]: the GI50 in the assay on NCI-H522 is 2.7 µM (inactive); in the assay on MCF7, 2.86 µM (inactive); in the assay with CCRF-CEM, 0.53 µM (active); in the assay with MDA-MB-231 it was 0.364 µM (active); with SF-268, 2.22 µM (inactive); with HL-60, 1.62 µM (inactive). Besides, the GI50 was 0.367 µM (active) with A549; 0.708 µM (active) in the assay with IGROV-1; 0.885 µM (active) with ACHN; 0.729 µM (active) in the assay on SN12C; 3.62 µM (inactive) in the assay with HT-29; 1.2 µM (inactive) with UO-31. For the same compound, the GI50 with MOLT-4 was 0.271 µM (active); in the assay with COLO 205 it was 1.21 µM (inactive); with NCI/ADR-RES, 0.955 µM (active); in the assay on 786-0, 0.624 µM (active); in the assay with EKVX, 3.56 µM (inactive); with HCT-116 it was 0.237 µM (active).
